Measurements taken from PMC6207370 (Xenobiotica; the fate of foreign compounds in biological …, 2017).
Where two headings read alike, the source gives them in different places. Marks after values point to notes of the source that are not given here.

What was measured:
[1] = Allometric scaling; parameters: species or system human; conditions: exponent 0.75
[2] = type: in vitro ADME; conditions: all species
[3] = mouse; ref Dalvie D, Zhang C, Chen W, et al. (2010); cited from earlier work
[4] = rat; ref Dalvie D, Zhang C, Chen W, et al. (2010); cited from earlier work
[5] = cynomolgus monkey; ref Dalvie D, Zhang C, Chen W, et al. (2010); cited from earlier work
[6] = Incubations with rat hepatic S9
[7] = Incubations with human hepatic S9; conditions: for CLint scaled at 1 μM: both, human
[8] = Incubations with mouse hepatic S9
[9] = Incubations with minipig hepatic S9
[10] = Incubations with guinea pig hepatic S9; conditions: guinea pig hepatic S9
[11] = Incubations with rhesus monkey hepatic S9; conditions: rhesus monkey hepatic S9
[12] = Single-species scaling
[13] = Incubations with cynomolgus monkey hepatic S9; conditions: cynomolgus monkey hepatic S9
[14] = method B (eq. 5), values > 1 assumed equal to 1

SMILES: N=C(N)NC(=O)c1cnn(-c2cccc3ncccc23)c1C1CC1 [Zoniporide]
- SSS Human Predicted S9 CLint ([1]; single-species scaling from cynomolgus monkey S9 CLint): 1.84 L/h/kg
- SSS Human Predicted S9 CLint ([1]; single-species scaling from mouse S9 CLint): 2.59 L/h/kg
- SSS Human Predicted S9 CLint ([1]; single-species scaling from rat S9 CLint): 6.84 L/h/kg
- Fm,AO, across species [2]: > 0.70
- CLp (plasma clearance) [3]: 298^§ mL/min/kg
- CLp (plasma clearance) [4]: 237^§ mL/min/kg
- CLp (plasma clearance) [5]: 31^§ mL/min/kg
- CLint scaled at 1 μM ([6]; male, Sprague-Dawley, rat, hepatic S9, pH 7.4, CLint (intrinsic clearance) in hepatic S9, rat hepatic S9, in the presence of NADPH, Table 1, triplicate, 2–3 experiments): 28 ± 1.62 L/h/kg
- Fm,AO Method A (fraction metabolized by AO) ([6]; rat hepatic S9, method A (eq. 4)): 0.74
- Fm,AO Method B (fraction metabolized by AO) ([6]; rat hepatic S9, method B (eq. 5), values > 1 assumed equal to 1): 0.72
- Fm,AO (fraction metabolized by AO) ([6]; rat hepatic S9, methods A and B taken together (data from Table 3)): 0.72–0.74
- CLHEP (hepatic clearance) ([6]; rat, well-stirred model from S9 CLint (+NADPH), uncorrected for fraction unbound): 3.65 ± 0.0291 L/h/kg
- CLint scaled at 1 μM ([7]; hepatic S9, pH 7.4, CLint (intrinsic clearance) in hepatic S9, human hepatic S9, in the presence of NADPH, Table 1, triplicate, 2–3 experiments): 1.07 ± 0.106 L/h/kg
- CLint scaled at 1 μM ([7]; hepatic S9, pH 7.4, CLint −NADPH, human hepatic S9 without NADPH): 1.03 ± 0.0918 L/h/kg
- Fm,AO Method A (fraction metabolized by AO) ([7]; human hepatic S9, method A (eq. 4)): 0.77
- Fm,AO Method B (fraction metabolized by AO) ([7]; human hepatic S9, method B (eq. 5), values > 1 assumed equal to 1): 0.72
- Fm,AO (fraction metabolized by AO) ([7]; human hepatic S9, methods A and B taken together (data from Table 3)): 0.72–0.77
- CLint scaled at 1 μM ([8]; male, CD-1, mouse, hepatic S9, pH 7.4, CLint (intrinsic clearance) in hepatic S9, mouse hepatic S9, in the presence of NADPH, Table 1, triplicate, 2–3 experiments): 19.9 ± 0.678 L/h/kg
- Fm,AO Method A (fraction metabolized by AO) ([8]; mouse hepatic S9, method A (eq. 4)): 0.90
- Fm,AO Method B (fraction metabolized by AO) ([8]; mouse hepatic S9, method B (eq. 5), values > 1 assumed equal to 1): 0.90
- Fm,AO (fraction metabolized by AO) ([8]; mouse hepatic S9, methods A and B taken together (data from Table 3)): 0.90
- CLint scaled at 1 μM ([9]; male, Gottingen, minipig, hepatic S9, pH 7.4, CLint (intrinsic clearance) in hepatic S9, minipig hepatic S9, in the presence of NADPH, Table 1, triplicate, 2–3 experiments): 1.4 ± 0.124 L/h/kg
- Fm,AO Method A (fraction metabolized by AO) ([9]; minipig hepatic S9, method A (eq. 4)): 0.83
- Fm,AO Method B (fraction metabolized by AO) ([9]; minipig hepatic S9, method B (eq. 5), values > 1 assumed equal to 1): 0.97
- Fm,AO Method A (fraction metabolized by AO) ([10]; method A (eq. 4)): 0.84
- Fm,AO Method B (fraction metabolized by AO) [10, 14]: 0.97
- Fm,AO Method A (fraction metabolized by AO) ([11]; method A (eq. 4)): 0.77
- Fm,AO Method B (fraction metabolized by AO) [11, 14]: 1^#
- SSS Human Predicted CLp ([12]; single-species scaling from literature cynomolgus monkey CLp): 0.912 L/h/kg
- SSS Human Predicted CLp ([12]; single-species scaling from literature mouse CLp): 2.35 L/h/kg
- SSS Human Predicted CLp ([12]; single-species scaling from literature rat CLp): 3.76 L/h/kg
- Fm,AO Method A (fraction metabolized by AO) ([13]; method A (eq. 4)): 0.90
- Fm,AO Method B (fraction metabolized by AO) [13, 14]: 1
- Fm,AO (fraction metabolized by AO) ([13]; methods A and B taken together (data from Table 3)): ≥ 0.90
